In paper PMC7250802, “Initial Evaluation of AF78: a Rationally Designed Fluorine-18-Labelled PET Radiotracer Targeting Norepinephrine Transporter” (Molecular Imaging and Biology, 2019):

Biological target: T1, norepinephrine transporter (NET) (Homo sapiens, UniProt P23975)
T1 construct: gene SLC6A2
Assay: competitive inhibition of […]AF78 uptake in SK-N-SH cells ([…] against […]MIBG)
Assay type: cell-based

T1 sequence (P23975 whole entry): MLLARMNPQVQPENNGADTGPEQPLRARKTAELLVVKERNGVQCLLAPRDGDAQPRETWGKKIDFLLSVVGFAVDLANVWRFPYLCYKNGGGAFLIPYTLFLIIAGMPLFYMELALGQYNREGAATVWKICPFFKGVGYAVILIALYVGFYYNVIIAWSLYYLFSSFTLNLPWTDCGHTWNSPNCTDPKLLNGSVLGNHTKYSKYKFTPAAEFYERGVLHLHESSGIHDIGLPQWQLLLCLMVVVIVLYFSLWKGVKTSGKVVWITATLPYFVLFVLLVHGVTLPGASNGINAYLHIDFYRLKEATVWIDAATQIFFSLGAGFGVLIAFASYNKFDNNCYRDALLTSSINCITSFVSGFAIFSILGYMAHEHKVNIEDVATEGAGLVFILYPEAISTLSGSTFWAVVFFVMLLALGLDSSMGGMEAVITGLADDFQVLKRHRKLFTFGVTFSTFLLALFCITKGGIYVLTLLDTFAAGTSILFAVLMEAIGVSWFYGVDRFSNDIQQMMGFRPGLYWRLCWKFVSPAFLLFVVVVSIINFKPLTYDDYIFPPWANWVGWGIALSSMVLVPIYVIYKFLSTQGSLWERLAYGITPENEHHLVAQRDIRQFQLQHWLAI

`N=C(N)NCCc1ccc(F)c(O)c1` [4F-MHPG, 4-[^18F]fluoro-3-hydroxyphenethylguanidine] showed an IC50 of 850 ± 630 nM.
